Results as given in the supplement of paper PMC11061612.

Assays:
Test in all cases: Bliss excess, mean over the matrix (fraction); higher = more synergy
[1] = test system: LU-165 (Small Cell Lung Carcinoma)
Outline: (§1)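 Cell lines grown in DMEM/F12 or RPMI with 10% FBS were plated in 1536-well plates and held 24 hours at 37°C, 5% CO2 before 72 hours of exposure to two-drug dose matrices, with DMSO typically at 0.2%. CellTiter-Glo 2.0 luminescence gave viability, which was converted to inhibition. Vehicle wells were set to 0 and blank wells to 1. Combination Emax is the second-highest inhibition in the matrix, and Bliss excess is the observed combination effect minus the expected EA + EB − EA·EB, where EA and EB are the single-agent effects.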

[2] = test system: SW620 (Colorectal Carcinoma)
Outline: as §1

[3] = test system: JHH-2 (Hepatocellular Carcinoma)
Outline: as §1

[4] = test system: WM1552C (Melanoma)
Outline: as §1

[5] = test system: IM-9 (Non-Cancerous)
Outline: as §1

[6] = test system: HCC1395 (Breast Carcinoma)
Outline: as §1

[7] = test system: EW-7 (Ewing's Sarcoma)
Outline: as §1

[8] = test system: SK-HEP-1 (Hepatocellular Carcinoma)
Outline: as §1

[9] = test system: EB2 (Burkitt's Lymphoma)
Outline: as §1

[10] = test system: MHH-ES-1 (Ewing's Sarcoma)
Outline: as §1

[11] = test system: NB13 (Neuroblastoma)
Outline: as §1

SMILES | Bliss excess [1] | Bliss excess [2] | Bliss excess [3] | Bliss excess [4] | Bliss excess [5] | Bliss excess [6] | Bliss excess [7] | Bliss excess [8] | Bliss excess [9] | Bliss excess [10] | Bliss excess [11]
Cc1c2c(nn1C)CSCc1cc(n(C)n1)CSc1cc(c3ccccc3c1)OCCCc1c(C(=O)O)n(C)c3c-2c(Cl)ccc13 [AZD5991] + Nc1ccn([C@@H]2O[C@H](CO)[C@@H](O)C2(F)F)c(=O)n1 [Gemcitabine] (first compound max 1 µM, 7x7, partner max 0.3 µM) | -0.0278 | -0.0217 | -0.005 | -0.0232 | -0.0364 | -0.0262 | -0.0158 | -0.109 | -0.0405 |  | 
Cc1c2c(nn1C)CSCc1cc(n(C)n1)CSc1cc(c3ccccc3c1)OCCCc1c(C(=O)O)n(C)c3c-2c(Cl)ccc13 [AZD5991] + CC(=O)O[C@H]1C(=O)[C@@]2(C)[C@H]([C@H](OC(=O)c3ccccc3)[C@]3(O)C[C@H](OC(=O)[C@H](O)[C@@H](NC(=O)c4ccccc4)c4ccccc4)C(C)=C1C3(C)C)[C@]1(OC(C)=O)CO[C@@H]1C[C@@H]2O [Paclitaxel] (first compound max 1 µM, 7x7, partner max 3 µM) | -0.0443 | 0.0435 | 0.017 | 0.0097 | 0.0008 | 0.0501 | 0.0625 | -0.0587 | -0.083 | -0.009 | 
CC1(C)CCC(CN2CCN(c3ccc(C(=O)NS(=O)(=O)c4ccc(NCC5CCOCC5)c([N+](=O)[O-])c4)c(Oc4cnc5[nH]ccc5c4)c3)CC2)=C(c2ccc(Cl)cc2)C1 [Venetoclax] + CS(=O)(=O)CCNCc1ccc(-c2ccc3ncnc(Nc4ccc(OCc5cccc(F)c5)c(Cl)c4)c3c2)o1 [Lapatinib] (first compound max 1 µM, 7x7, partner max 10 µM) | -0.0289 | -0.0409 | -0.0664 | -0.0328 | 0.0902 | -0.0509 | 0.0078 | 0.0013 | -0.039 | 0.0086 | -0.028
O=C(c1cc(Cc2n[nH]c(=O)c3ccccc23)ccc1F)N1CCN(C(=O)C2CC2)CC1 [Olaparib] + Cc1c2c(nn1C)CSCc1cc(n(C)n1)CSc1cc(c3ccccc3c1)OCCCc1c(C(=O)O)n(C)c3c-2c(Cl)ccc13 [AZD5991] (first compound max 10 µM, 7x7, partner max 1 µM) | -0.0374 | -0.0572 | -0.0539 | 0.0329 | 0.0865 | -0.016 | 0.015 | -0.0101 | -0.0266 | 0.0108 | 
C[C@@H](Oc1cc(-c2cnn(C3CCNCC3)c2)cnc1N)c1c(Cl)ccc(F)c1Cl [Crizotinib] + CC1=C(C(=CC=C1)Cl)NC(=O)C2=CN=C(S2)NC3=CC(=NC(=N3)C)N4CCN(CC4)CCO [Dasatinib] (first compound max 10 µM, 7x7, partner max 2 µM) | -0.0337 | 0.0171 | -0.0101 | 0.0392 | 0.0001 | 0.0615 | -0.0072 | -0.0098 | 0.0112 | -0.0279 | -0.06
C[C@@H]1COCCN1c1cc(C2([S@](C)(=N)=O)CC2)nc(-c2ccnc3[nH]ccc23)n1 [AZD6738] + Nc1ccn([C@@H]2O[C@H](CO)[C@@H](O)C2(F)F)c(=O)n1 [Gemcitabine] (first compound max 10 µM, 7x7, partner max 0.3 µM) | -0.018 | 0.0454 | 0.0069 | 0.0225 | -0.0189 | 0.0334 | 0.0313 | 0.0557 | 0.0068 | 0.0624 | 
CS(=O)(=O)CCNCc1ccc(-c2ccc3ncnc(Nc4ccc(OCc5cccc(F)c5)c(Cl)c4)c3c2)o1 [Lapatinib] + Cn1cnc2c(F)c(Nc3ccc(Br)cc3Cl)c(C(=O)NOCCO)cc21 [Selumetinib] (first compound max 10 µM, 7x7, partner max 10 µM) | -0.0543 | -0.0193 | -0.0273 | -0.0077 | -0.0826 | -0.0343 | 0.0166 | -0.0163 | -0.0474 | 0.0015 | -0.0311
O=C(c1cc(Cc2n[nH]c(=O)c3ccccc23)ccc1F)N1CCN(C(=O)C2CC2)CC1 [Olaparib] + CN(CC[C@H](CSC1=CC=CC=C1)NC2=C(C=C(C=C2)S(=O)(=O)NC(=O)C3=CC=C(C=C3)N4CCC(CC4)[C@H](C5=CC=CC=C5C6=CC=C(C=C6)Cl)O)S(=O)(=O)C(F)(F)F)CCO [AZD4320] (first compound max 10 µM, 7x7, partner max 1 µM) | -0.008 | -0.0535 | -0.0363 | 0.0005 | 0.141 | -0.0335 | 0.129 | 0.0491 | -0.0537 | 0.0657 | 
O=C(c1cc(Cc2n[nH]c(=O)c3ccccc23)ccc1F)N1CCN(C(=O)C2CC2)CC1 [Olaparib] + COc1nnc2ccc(N3CCC(c4ccc(OCCN5CCN(C)C(=O)[C@H]5C)cc4)CC3)nn12 [AZD5153] (first compound max 10 µM, 7x7, partner max 1 µM) | -0.0305 | -0.0506 | -0.0195 | -0.0553 | 0.0107 | -0.0658 | 0.0362 | 0.0116 | -0.0329 | 0.0286 | 
Cc1c2c(nn1C)CSCc1cc(n(C)n1)CSc1cc(c3ccccc3c1)OCCCc1c(C(=O)O)n(C)c3c-2c(Cl)ccc13 [AZD5991] + CS(=O)(=O)CCNCc1ccc(-c2ccc3ncnc(Nc4ccc(OCc5cccc(F)c5)c(Cl)c4)c3c2)o1 [Lapatinib] (first compound max 1 µM, 7x7, partner max 10 µM) | -0.125 | -0.043 | -0.063 | 0.0199 | 0.0138 | -0.0227 | 0.033 | 0.0191 | -0.0287 | 0.0286 | -0.0239
C=CCn1c(=O)c2cnc(Nc3ccc(N4CCN(C)CC4)cc3)nc2n1-c1cccc(C(C)(C)O)n1 [AZD1775] + Nc1ccn([C@@H]2O[C@H](CO)[C@@H](O)C2(F)F)c(=O)n1 [Gemcitabine] (first compound max 1 µM, partner max 0.3 µM) | 0.0004 | 0.0165 | 0.0264 | -0.0467 | 0.0398 | 0.0294 | 0.0396 | -0.029 | 0.0066 | 0.0359 | 
CN(CCO)CC[C@H](CSc1ccccc1)Nc1ccc(S(=O)(=O)NC(=O)c2ccc(N3CCC([C@@H](O)c4ccccc4-c4ccc(Cl)cc4)CC3)cc2)cc1S(=O)(=O)C(F)(F)F [AZD4320] + CS(=O)(=O)CCNCc1ccc(-c2ccc3ncnc(Nc4ccc(OCc5cccc(F)c5)c(Cl)c4)c3c2)o1 [Lapatinib] (first compound max 1 µM, 7x7, partner max 10 µM) |  | -0.0116 | 0.0312 | 0.0285 | 0.117 | -0.0261 | 0.138 | -0.0958 | -0.104 | 0.136 | 0.0537
C[C@@H](Nc1cc(F)cc(F)c1)c1cc(C(=O)N(C)C)cc2c(=O)cc(N3CCOCC3)oc12 [AZD8186] + CC(=O)c1c(C)c2cnc(Nc3ccc(N4CCNCC4)cn3)nc2n(C2CCCC2)c1=O [Palbociclib] (first compound max 10 µM, 7x7, partner max 10 µM) | -0.0313 | 0.0238 | -0.0282 | -0.0163 | 0.112 | 0.063 | 0.045 | -0.0155 | 0.0045 | 0.108 | 
O=C(c1cc(Cc2n[nH]c(=O)c3ccccc23)ccc1F)N1CCN(C(=O)C2CC2)CC1 [Olaparib] + CC1(C)CCC(CN2CCN(c3ccc(C(=O)NS(=O)(=O)c4ccc(NCC5CCOCC5)c([N+](=O)[O-])c4)c(Oc4cnc5[nH]ccc5c4)c3)CC2)=C(c2ccc(Cl)cc2)C1 [Venetoclax] (first compound max 10 µM, 7x7, partner max 1 µM) | -0.0248 | -0.0533 | -0.0527 | -0.0325 | 0.112 | -0.0396 | 0.0125 | -0.0619 | -0.0324 | 0.0283 | 
C[C@@H](Nc1cc(F)cc(F)c1)c1cc(C(=O)N(C)C)cc2c(=O)cc(N3CCOCC3)oc12 [AZD8186] + C1CN(CCC1(C(=O)N[C@@H](CCO)C2=CC=C(C=C2)Cl)N)C3=NC=NC4=C3C=CN4 [AZD5363] (first compound max 10 µM, 7x7, partner max 10 µM) | -0.086 | -0.0135 | -0.0637 | -0.0322 | 0.0493 | 0.0007 | -0.03 | -0.0291 | -0.0292 | 0.0026 | 
